Test results taken from patent publication US20250161243A1, “MEF2 TRANSCRIPTIONAL ACTIVATORS TO TREAT NEUROLOGIC CONDITIONS” (The Scripps Research Institute, priority 2022, published 2025).
“Also recorded” adds a separate entry of the source.

Experiments:
[1] = test system: MEF2 transcriptional activity; experiment: MEF2 transcriptional activity screen (Luciferase-MEF2 reporter in human neural progenitor cells); type: cell-based; details: for EC50: Homo sapiens, concentration for half-maximal activity derived from the hill equation model, MEF2 luciferase reporter, read-out: qAC50
[2] = literature references given; cited from earlier work
[3] = test system: MEF2 transcriptional activity; experiment: Confirmatory screen and Renilla counter-screen of MEF2 reporter activity; type: cell-based, human; details: n=3
Excerpt: FIG. 4. Dose-response for hits in the Renilla counterscreen. Dose response plots for AR-42, that had high EC50 and >3-fold increase in MEF2 activity in the primary screen. (n=3).
(§1) In an embodiment, a compound for use in a method as described herein is AR-42 (Table 1).

[4] = test system: MEF2C haploinsufficiency syndrome (MCHS) patient hiPSC-derived cerebrocortical neurons; experiment: Calcium events (fluo-4AM) in MCHS patient hiPSC-derived cerebrocortical neurons; type: cell-based, human; details: MCHS neurons against isogenic WT control
Excerpt: FIGS. 6A and 6B. AR-42 decreases hyperelectrical activity in MEF2C haploinsufficiency syndrome (MCHS) patient hiPSC-derived cerebrocortical neurons. (FIG. 5A) Representative traces of calcium events using fluo-4AM calcium-sensitive dye in hiPSC-derived neurons. […] (FIG. 5B) Quantification of calcium event frequency. Data represent mean±SEM. Sample size was 5 neurons imaged per coverslip in 3 coverslips. * P<0.05 by one-way ANOVA and Tukey post-hoc test.
as §1

[5] = test system: MEF2C haploinsufficient (MHCS) patient hiPSC-derived cerebrocortical neurons; experiment: MAP2 protein expression (immunoblot) in MCHS patient hiPSC-derived cerebrocortical neurons; type: cell-based, human; details: MCHS neurons versus WT control, in vitro
Excerpt: FIGS. 5A and 5B. […] (FIG. 4A) MAP2 protein expression in neurons treated with AR-42 and (n=3 in 2 independent experiments). (FIG. 4B) Representative immunoblot of MAP2 expression and GAPDH loading control. Data represented as mean±SEM. * P<0.05 by one-way ANOVA and Tukey post-hoc test.
Additionally, the neurons of patients with MEF2C haploinsufficiency syndrome (MCHS) display shorter neurites. The neuronal marker MAP2 was monitored as a biomarker for neurites in the MCHS hiPSC-derived neurons versus WT control: compromised levels of MAP2 were found, but they were corrected by treatment with AR-42 in vitro (FIGS. 6A and 6B). These types of assays correlate well with improvement in behavioral studies in this type of ASD/ID, as illustrated by the use mouse models of MCHS (S. Tu (2017)).

Row | SMILES | EC50 [1] [nM] | PAMPA Pe (10^−6 cm s^−1) [2] | increase in MEF2 activity in the primary screen ([1]; primary screen, 10 μM) [fold] | MEF2 transcriptional activity corrected with control Renilla-based (non-specific) reporter [3] | aberrant hyperactivity (Ca^2+ signaling, calcium event frequency) [4] | MAP2 levels (neurite biomarker) [5]
1 | CNS(=O)(=O)Nc1nccc(Cc2c(C)c3ccc(Oc4ncccn4)cc3oc2=O)c1F [RO-5126766] | 39.1 | 6 10^−6 cm s^−1 | – | – | – | –
2 | CC(C)[C@H](C(=O)Nc1ccc(C(=O)NO)cc1)c1ccccc1 [AR-42] | 438 | – | > 3 | increased MEF2 transcriptional activity | normalizes this aberrant, excessive activity; also recorded: decreased aberrant hyperactivity | increase MAP2 levels; also recorded: corrected
3 | Nc1c2ccccc2nc2ccccc12 [ACRISORCIN] | 19300 | 6 10^−6 cm s^−1 | – | – | – | –
